Assay results from patent US8440648B2, “Methods and compositions for treatment of intraepithelial neoplasia” (Erimos Pharmaceuticals LLC, priority 2004, dated 2013).

Tests used:
[1] = system: Cervical Intraepithelial Neoplasia (CIN); assay: Pilot clinical trial of intravaginal M4N: preliminary efficacy from cervical biopsies; format: in vivo, women; conditions: three patients, 3 weekly doses of 1% M4N in white petrolatum
From the text: (§1) This study was designed to look at the systemic and local toxicity of tetra-O-methyl NDGA (M4N) administered intravaginally to women once a week for three weeks. Patients, at the time of screening, had visible cervical lesions, were HPV positive, and had previous biopsy confirmed Cervical Intraepithelial Neoplasia (CIN). Cervical biopsies were taken at Day 1 and follow up biopsies were taken at Day 71. Five patients have been enrolled in the study, and three patients have completed the study through Day 71.
Preliminary efficacy data was collected from cervical biopsies at Day 1 and Day 71 from the three patients that completed the Day 71 visit after receiving 3 doses of the 1% formulation of M4N.

[2] = system: New Zealand White rabbits; assay: Fourteen day rabbit intravaginal topical toxicology study (local and systemic toxicity); conditions: M4N 20 mg/g in white petrolatum
Description: This study was designed to look at the local and systemic toxicity of tetra-O-methyl NDGA (M4N) administered intravaginally in New Zealand White rabbits for 14 days. Rabbits were dosed daily with 1 mL of a white petrolatum formulation of M4N (20 mg/g) or placebo. Ten female rabbits (5 per group) were dosed. Local effects of drug were scored using the Draize scoring system daily, and gross pathology and histopathology was obtained at necropsy on termination of the dosing period.

[3] = system: women with Cervical Intraepithelial Neoplasia; assay: Pilot clinical trial of intravaginal M4N: systemic and local toxicity; format: in vivo
From the text: as §1
(§2) The first four patients received 5 mL of a 1% formulation of M4N in white petrolatum once weekly for each of three weekly doses. […] One patient received 5 mL of a 2% M4N formulation in white petrolatum at each of two weekly doses to date. […] The relationship to the study drug administration is unknown.

[4] = Pilot clinical trial of intravaginal M4N: serum levels; format: in vivo; conditions: after intravaginal administration of the 1% formulation in white petrolatum, women
From the text: as §1, §2

[5] = Serum levels of M4N in the fourteen day rabbit intravaginal study; format: in vivo, New Zealand White rabbits; conditions: M4N 20 mg/g in white petrolatum, 1 mL intravaginally daily, rabbits; levels inconsistent, minimal absorption
Description: Fourteen Day Rabbit Intravaginal Topical Toxicology Study. […] Ten female rabbits (5 per group) were dosed.

[6] = 1 mL intravaginally daily for 14 days

Structure (SMILES): COc1ccc(C[C@@H](C)[C@@H](C)Cc2ccc(OC)c(OC)c2)cc1OC [M4N, meso-1,4-bis(3,4-dimethoxyphenyl)-2,3-dimethylbutane]
- Response in cervical biopsies, Day 71 versus Day 1 [1]: one patient had a complete response, one patient had a partial response, and one patient showed disease progression
- Vaginal observations: mild edema, animals affected [2, 6]: 2/5
- Vaginal observations: mild erythema, animals affected [2, 6]: 3/5
- Survival until scheduled termination ([2]; 1 mL intravaginally daily for 14 days, rabbits): All animals survived until scheduled termination
- Vaginal observations: minimal edema, animals affected ([2]; 1 mL intravaginally daily for 14 days, control 2/5): 1/5
- Weekly clinical and twice daily cage-side observations ([2]; intravaginally daily for 14 days): No findings were noted
- Clinical pathology findings ([2]; intravaginally daily for 14 days, considered incidental): lower absolute basophil counts, and ALT values
- Histopathology findings ([2]; intravaginally daily for 14 days, relation to drug unknown): in one M4N-treated rabbit, heterophil infiltrates were seen in the vaginal mucosa
- Irritation or toxicity ([3]; 5 mL of 1% M4N in white petrolatum intravaginally once weekly, three doses, four patients): No irritation or toxicity was reported
- Vaginal irritation or toxicity ([3]; 5 mL of 2% M4N in white petrolatum intravaginally, two weekly doses, one patient): No vaginal irritation or toxicity was reported
- Vulvar irritation ([3]; 5 mL of 2% M4N in white petrolatum intravaginally, two weekly doses, one patient, relationship to drug unknown): minor vulvar irritation was reported
- Serum levels [4]: below limit of quantification
- Serum level at peak concentration [5]: less than 10 ng/mL
